Measurements reported in publication PMC6266276 (Viruses, 2018).
pIC50: −log10 of the molar value. Several values for one entry are separate records, joined by “and”; a condition that tells them apart may be missing. Equal entries are not always repeated. Entries after “also recorded” stand apart in the source; their conditions may differ. Where two headings read alike, the source gives them in different places.

How the values were obtained:
[1] = tested on: phosphorylated eIF4E (p-eIF4E); assay type: cell-based
in vitro [2] = settings: African green monkey
[3] = tested on: porcine epidemic diarrhea virus (PEDV); assay: microbe, parasite or virus in culture; assay type: cell-based, porcine epidemic diarrhea virus (PEDV) strain CV777; settings: for pIC50: Porcine epidemic diarrhea virus, Vero, read-out: IC50, half maximal inhibitory concentration
in vitro [4] = settings: human
[5] = tested on: vesicular stomatitis virus (VSV); assay type: cell-based, vesicular stomatitis virus (VSV) strain Indiana
VSV = settings: cited from earlier work
[6] = tested on: Newcastle disease virus (NDV); assay: microbe, parasite or virus in culture; assay type: cell-based, Newcastle disease virus (NDV) strain NA-1; settings: for pIC50: read-out: IC50, half maximal inhibitory concentration
[7] = chicken, in vivo
[8] = tested on: bovine viral diarrhea virus (BVDV); settings: HHT at concentrations below 2 µM ref 52; cited from earlier work
[9] = tested on: Newcastle disease virus (NDV); design: species or system Newcastle disease virus (NDV) strain NA-1; settings: in vivo, 0.2 mg/kg
hepatitis B virus (HBV) = settings: HHT at concentrations below 2 µM ref 52; cited from earlier work
acute myeloid leukemia = settings: mice, HHT 1.0 mg/kg ref 26; cited from earlier work
[10] = tested on: mouse hepatitis coronavirus (MHV); settings: HHT at 125 nM ref 53; cited from earlier work
chikungunya virus = settings: HHT at 1 µM ref 38; cited from earlier work
[11] = mouse, in vivo
[12] = tested on: Newcastle disease virus (NDV); design: species or system Newcastle disease virus (NDV) strain NA-1; settings: in vivo
pseudorabies virus (PRV) = assay type: cell-based, pseudorabies virus (PRV) strain Fa
[13] = tested on: avian influenza virus (AIV); design: species or system avian influenza virus (AIV) strain H9-WD; settings: in vivo
[14] = pig, in vivo
[15] = tested on: herpes simplex virus type 1 (HSV-1); assay: microbe, parasite or virus in culture; assay type: cell-based, herpes simplex virus type 1 (HSV-1) strain F
[16] = tested on: porcine epidemic diarrhea virus (PEDV); design: species or system porcine epidemic diarrhea virus (PEDV) strain CV777; settings: pig, in vivo

Nc1ncnc2n[nH]c(Nc3ccc(F)cc3)c12 [CGP57380]
cellular total eIF4E level [1]: without an effect on total eIF4E protein level | p-eIF4E levels [1]: prevent the phosphorylation of eIF4E

O=c1c(O)c(-c2ccc(O)c(O)c2)oc2cc(O)cc(O)c12 [Quercetin]
CC50 (in vitro [2]): > 1000 µM | SI, Selectivity index = CC50/IC50 [3]: >145 | pIC50 [3]: 5.16

NC(=O)c1ncn([C@@H]2O[C@H](CO)[C@@H](O)[C@H]2O)n1 [Ribavirin]
CC50 (in vitro [4]): 2820 µM | concentrations at which antiviral activity was displayed [5]: over 100 µM | inhibition of VSV titer in cells (VSV): 2.5 orders of magnitude | SI, Selectivity index = CC50/IC50 [6]: 64 | pIC50 ([6]; avian paramyxovirus 1, HeLa): 4.35

COC(=O)C[C@](O)(CCCC(C)(C)O)C(=O)O[C@@H]1C(OC)=C[C@]23CCCN2CCc2cc4c(cc2[C@H]13)OCO4 [HHT, homoharringtonine]
50% toxicity dose [7]: 0.4 mg/kg | antiviral efficacy on BVDV infection [8]: no protective effects | mRNA level of NDV-NP in blood [9]: significantly decreased | mRNA level of NDV-NP in the liver and lung [9]: significantly decreased | pathological change in tissues and symptoms [9]: did not exhibit a pathological change in tissues or symptoms; also recorded: survived without pathogenic changes in tissues and symptoms | cell viability (Vero cells): No measurable decrease in cell viability | antiviral efficacy on HBV DNA levels (hepatitis B virus (HBV)): no protective effects | acute myeloid leukemia in vivo (acute myeloid leukemia): completely eradicate acute myeloid leukemia | CC50 (in vitro [4]): 1.92 µM | VSV-G levels, time-of-addition [5]: strong reductions | inhibitory effect against viral infection, pre-treatment [5]: minimal inhibitory effect | reduction of the viral yields, co-/post-treatment [5]: complete reduction | reduction of viral yields [5]: 1.5 orders of magnitude | viral protein G levels of VSV (VSV-G) [5]: strong reduction | viral reduction [5]: 6.5 orders of magnitude and 5 orders of magnitude | viral yields [5]: dramatically reduced | inhibition of MHV in vitro [10]: high-magnitude inhibition | inhibition of viral yield (chikungunya virus): 2–3 orders of magnitude | inflammatory reaction in lung [11]: No obvious inflammatory reaction | cell viability (HEK293T cells): no measurable decrease in cell viability | effect on viral infection in chicken embryos [12]: slight effect; also recorded: completely inhibited viral infection | reduction of HAU values [12]: one and three | PRV-gC level (pseudorabies virus (PRV)): strong reduction | viral replication (pseudorabies virus (PRV)): strong reduction in viral replication | CC50 (in vitro [2]): 5.58 µM | lung inflammation [13]: decreased local inflammatory reaction but aggravated overall inflammation; also recorded: moderately attenuated inflammation | number of AIV positive cells in lung [13]: No obvious reduction | accumulation of Mcl-1 [1]: gradually reduced | cellular total eIF4E level [1]: unaffected | p-eIF4E induced by ectopic expression of wild-type eIF4E [1]: decreased the accumulation of p-eIF4E | p-eIF4E levels [1]: gradually reduced | p-eIF4E levels induced by viral infection, in parallel with viral protein [1]: gradually reduced | 50% toxicity dose [14]: 0.2 mg/kg | animals for which side effects were fatal ([14]; 0.2 mg/kg): about 50% | NDV-NP level [6]: strong reduction | SI, Selectivity index = CC50/IC50 [6]: 107 | concentration that completely inhibited infection [6]: 100 nM | morphology and number of HeLa cells compared to mock infected sample [6]: no difference in morphology and number | production of recombinant NDV expressing GFP [6]: greatly reduced | IC90 ([6]; avian paramyxovirus 1, HeLa, 24 h): 0.04 µM | pIC50 ([6]; avian paramyxovirus 1, HeLa): 7.74 | HSV-ICP8 level [15]: strong reduction | SI, Selectivity index = CC50/IC50 [15]: 40 | viral replication [15]: strong reduction in viral replication | pIC50 ([15]; Human alphaherpesvirus 1, Vero, read-out: IC50, half maximal inhibitory concentration): 6.86 | inhibitory activity and death [16]: optimal inhibitory activity without death | pathological change in tissues and symptoms ([16]; 0.05 mg/kg): survived without pathogenic changes in tissues and symptoms | mRNA levels of PEDV-N in blood ([16]; 0.05 mg/kg/day): greatly decreaseed | mRNA levels of PEDV-N in the intestine ([16]; 0.05 mg/kg/day): greatly decreaseed | cell viability (HeLa cells): No measurable decrease in cell viability | PEDV-N levels, time-of-addition [3]: strong reductions | PEDV-N protein and mRNA levels [3]: strong reduction | SI, Selectivity index = CC50/IC50 [3]: 50 | concentration that completely inhibited infection [3]: 500 nM | infection rate, time-of-addition [3]: less than 30% | reduction of viral yields [3]: 1.9 orders of magnitude | viral yields [3]: completely suppressed | pIC50 [3]: 6.95
